For test [1], the system named is HSTS26T tumors. In words: Distribution of intratumorally injected 100 nm nanoparticles. The format is in vivo, mice. Particulars: 100 nm diameter nanoparticles. From the text:
(§1) Based on the previous studies on the tumor interstitial matrix (Pluen A, et al. (2001) Proc Natl Acad Sci USA 98:4628-4633 and Brown E, et al. (2003) Nat Med 9:796-800), the inventors then sought to determine if a decrease in collagen content by Losartan can improve the intratumoral distribution of nanoparticles. The inventors therefore measured the intratumoral distribution of fluorescent polystyrene nanoparticles (100 nm diameter) in three different tumor types—HSTS26T, Mu89, and L3.6 pl—after an i.t. or i.v. injection. In mice injected i.t. with nanoparticles, losartan improved nanoparticle accumulation and penetration in the tumor center (FIG. 8A; HSTS26T p<0.001, Mu89 p<0.001). Conversely, there was little or no nanoparticle accumulation in the center of control tumors. Most of the injected nanoparticles in control tumors were found in the tumor margin and around the needle insertion point (FIG. 8A). The inventors also determined the effects of losartan on the intratumoral distribution of oncolytic HSV.
(§2) Nanoparticles and oncolytic HSV were infused with a syringe pump (Harvard Apparatus Standard Pump 22, Holliston, Mass.) at a flow rate of 4 μl/min. The inventors injected 10 μl of HSV (2.5×10^5 t.u.) expressing the green fluorescent protein (GFP), or 10 μl of fluorescent nanoparticles (diameter of […]; concentration of 1×10^13 nanoparticles/ml). […]

Test [2] has as its system Mu89 tumors. The description is as above. The format is in vivo, mice. Particulars: 100 nm diameter nanoparticles.
From the text: as §1, §2

For test [3], the system named is E0771 breast tumors. In words: Tumor matrix level histology (collagen I). Further details: species or system SCID mouse. The conditions noted are these: mouse, in vivo. The procedure:
Collagen levels were used as a metric of matrix production as described in Diop-Frimpong et al., Proc Nall Acad Sci USA. […] Next, solid stress in these tumors was measured using recently established technique described in Stylianopoulos T, et al., Growth-induced mechanical stress in murine and human tumors: causes, consequences and remedies. under review.
Vessel perfusion, matrix level, and hypoxia histology: For breast tumors, mice bearing orthotopic E0771 were split into treatment groups, time-matched for time after implantation and size-matched for tumor volume at this time (−100 mm^3). For pancreatic tumors, mice bearing orthotopic AK4.4 were split into treatment groups, size-matched for tumor volume (˜22 mm^3), 6 days after implantation. […] On the day of the last treatment, mice were slowly (−2 min) injected with 100 μL of 1 mg/mL biotinylated lectin (Vector Labs), administered retro-orbitally 5 min prior to tumor removal. For hypoxia studies, the mice were also injected with 60 mg/kg of 10 mg/mL pimonidazole 1 hr prior to tumor removal. […] For matrix staining, collagen I was detected using the LF-67 antibody provided by Dr. Larry Fisher (National Institute of Dental Research, Bethesda, Md.).
Histological image analysis: Eight random images (four interior, four periphery) at 20× magnification were taken from each slide using a confocal microscope (Olympus). […] For perfusion, the number of vessels counted by this program with colocalization of lectin and CD31 staining was divided by the number of vessels counted with CD31 staining. For vessel metrics, including diameter and density, the program determined the average size of all counted vessels and their length, as well as the count per area Images of collagen I stained sections were analyzed based on the area fraction of positive staining and on the average staining intensity (concentration) in each image. […] Images of hypoxia staining with pimonidazole were similarly analyzed for the area fraction of positive staining, counting the fraction of pixels above a threshold based on background intensity.

Test [4] relates to E0771 tumors. In words: Solid stress (tumor opening technique). On the set-up: species or system mice. Particulars: mouse, in vivo.
Protocol: Solid stress was assessed using an ex vivo technique involving the measurement of the extent of tumor tissue relaxation (tumor opening relative to tumor diameter) following a stress-releasing incision, with larger openings indicating higher stress.
When the tumors reached a size of −1 cm in diameter, the mice were anesthetized. Subsequently, each tumor was excised, washed with Hanks' Balanced Salt Solution (HBSS) and its three dimensions were measured. Each tumor was cut along its longest axis, to a depth of 80% of its shortest dimension, using a scalpel. The tumors were allowed to relax for 10 minutes in HBSS to diminish any transient, poro-elastic responses. Afterwards, the opening resulting from the cut was measured at the middle of the cut at the surface of the tumor. Solid stress is proportional to the size of the opening relative to the size of the dimension perpendicular to the cut.
The subject of test [5] is 4T1 breast tumors. In words: Solid stress (tumor opening technique). The conditions noted are these: mouse, in vivo. On the set-up: species or system mice. An excerpt: FIG. 25 is a bar graph showing that angiotensin inhibitors decrease stress in multiple tumor models. Solid stress levels in tumors after angiotensin inhibition using losartan are shown. […] Animal numbers n=10-11 (4T1 stress), n=4-8 (Pan-02 stress).
The mechanism responsible for the increase in tumor vessel perfusion by losartan was investigated. Desmoplasia, high stromal cell and matrix density, is a major contributor to the solid stress accumulation that compresses vessels (Stylianopoulos T, et al., Growth-induced mechanical stress in murine and human tumors: causes, consequences and remedies. under review. 2012). […] Moreover, losartan decreased collagen I concentration, measured based on staining intensity, in E0771 and AK4.4 tumors (FIGS. 24B-24C). […] Next, solid stress in these tumors was measured using recently established technique described in Stylianopoulos T, et al., Growth-induced mechanical stress in murine and human tumors: causes, consequences and remedies. under review. […]
Solid stress: Solid stress was measured using the tumor opening technique as described previously (Stylianopoulos T, et al., Growth-induced mechanical stress in murine and human tumors: causes, consequences and remedies. under review. 2012). […] Subsequently, each tumor was excised, washed with Hanks' Balanced Salt Solution (HBSS) and its three dimensions were measured. […]

`CCCCc1nc(Cl)c(CO)n1Cc1ccc(-c2ccccc2-c2nn[nH]n2)cc1` [losartan]: the figures for the “increase in distribution of i.t.-injected nanoparticles” value in test [1] and in test [2] were 1.5 fold and 4 fold, respectively. The “concentration of collagen I (staining intensity)” value in test [3] is recorded as “reduces”. Besides, the “matrix production, collagen I area fraction” value in test [3] is recorded as “decreases”. Further, the solid stress result in test [4] and in test [5] was “reduces solid stress” in each case.
